# Source: ChEMBL document CHEMBL4359906, “Design and synthesis of new N-terminal fatty acid modified-antimicrobial peptide analogues with potent in vitro biological activity” (Eur J Med Chem, 2019)
# Active and inactive are the calls of the source. No cut-off for these calls is given here.
# Legend:
# [1] = Cytotoxicity against mouse RAW264.7 cells assessed as cell proliferation at 16 uM after 1 hr by MTT assay relative to control; assay type: cell-based; details: read-out: Activity
# [2] = tested on: Pseudomonas aeruginosa; assay: Antibiofilm activity against Pseudomonas aeruginosa ATCC 27853 at 2 times of MIC after 24 hrs by crystal violet staining based assay; assay type: functional, organism-based
# [3] = tested on: Escherichia coli; assay: Antimicrobial activity against Escherichia coli ATCC 25922 at 1 mM preincubated for 6 hrs in presence of 2000 ug/ml chymotrypsin and measured after 18 hrs by microplate reader analysis; assay type: functional, organism-based
# [4] = tested on: DNA; assay: Binding affinity to Escherichia coli ATCC 25922 genomic DNA at 1 x MIC after 30 mins by agarose gel electrophoresis; assay type: nucleic-acid assay
# [5] = tested on: DNA; assay: Binding affinity to Escherichia coli ATCC 25922 genomic DNA at 8 x MIC after 30 mins by agarose gel electrophoresis; assay type: nucleic-acid assay
# [6] = tested on: Escherichia coli; assay: Antibacterial activity against Escherichia coli ATCC 25922 after 18 hrs in presence of NaCl by CLSI based broth microdilution method (reference value: 64 microM); assay type: functional; details: ATCC 25922, 18 h
# [7] = tested on: Escherichia coli; assay: Antibacterial activity against Escherichia coli ATCC 25922 after 18 hrs in presence of MgCl2 by CLSI based broth microdilution method (reference value: 64 microM); assay type: functional; details: ATCC 25922, 18 h
# [8] = tested on: Escherichia coli; assay: Antibacterial activity against Escherichia coli ATCC 25922 after 18 hrs in presence of FeCl3 by CLSI based broth microdilution method (reference value: 64 microM); assay type: functional; details: ATCC 25922, 18 h
# [9] = tested on: Staphylococcus aureus; assay: Antibacterial activity against Staphylococcus aureus ATCC 25923 after 18 hrs in presence of NaCl by CLSI based broth microdilution method (reference value: 32 microM); assay type: functional; details: ATCC 25923, 18 h
# [10] = tested on: Staphylococcus aureus; assay: Antibacterial activity against Staphylococcus aureus ATCC 25923 after 18 hrs in presence of KCl by CLSI based broth microdilution method (reference value: 32 microM); assay type: functional; details: ATCC 25923, 18 h
# [11] = tested on: Staphylococcus aureus; assay: Antibacterial activity against Staphylococcus aureus ATCC 25923 after 18 hrs in presence of FeCl3 by CLSI based broth microdilution method (reference value: 32 microM); assay type: functional; details: ATCC 25923, 18 h
# [12] = tested on: Escherichia coli; assay: Antimicrobial activity against Escherichia coli ATCC 25922 at 1 mM preincubated for 6 hrs in presence of 200 ug/ml chymotrypsin and measured after 18 hrs by microplate reader analysis; assay type: functional, organism-based
# [13] = tested on: Escherichia coli; assay: Antimicrobial activity against Escherichia coli ATCC 25922 preincubated for 1 hr in presence of 10% mouse serum and measured after 18 hrs by CLSI-based broth microdilution assay (reference value: 64 microM); assay type: functional
# [14] = tested on: Escherichia coli; assay: Antimicrobial activity against Escherichia coli ATCC 25922 preincubated for 6 hrs in presence of 10% mouse serum and measured after 18 hrs by CLSI-based broth microdilution assay (reference value: 64 microM); assay type: functional
# [15] = tested on: DNA; assay: Binding affinity to Escherichia coli ATCC 25922 genomic DNA at 4 x MIC after 30 mins by agarose gel electrophoresis; assay type: nucleic-acid assay
# [16] = tested on: Staphylococcus aureus; assay: Antibacterial activity against Staphylococcus aureus ATCC 25923 after 18 hrs in presence of NaCl by CLSI based broth microdilution method (reference value: 64 microM); assay type: functional; details: ATCC 25923, 18 h
# [17] = tested on: Staphylococcus aureus; assay: Antibacterial activity against Staphylococcus aureus ATCC 25923 after 18 hrs in presence of KCl by CLSI based broth microdilution method (reference value: 64 microM); assay type: functional; details: ATCC 25923, 18 h
# [18] = tested on: Staphylococcus aureus; assay: Antibacterial activity against Staphylococcus aureus ATCC 25923 after 18 hrs in presence of MgCl2 by CLSI based broth microdilution method (reference value: 64 microM); assay type: functional; details: ATCC 25923, 18 h
# [19] = tested on: Staphylococcus aureus; assay: Antibacterial activity against Staphylococcus aureus ATCC 25923 after 18 hrs in presence of FeCl3 by CLSI based broth microdilution method (reference value: 64 microM); assay type: functional; details: ATCC 25923, 18 h
# [20] = tested on: Escherichia coli; assay: Antimicrobial activity against Escherichia coli ATCC 25922 at 1 mM preincubated for 6 hrs in presence of 20 ug/ml chymotrypsin and measured after 18 hrs by microplate reader analysis; assay type: functional, organism-based
# [21] = tested on: RAW264.7; assay: Cytotoxicity against mouse RAW264.7 cells assessed as cell proliferation at 16 uM after 1 hr by MTT assay; assay type: cell-based; details: raw264.7, 1 h
# [22] = tested on: Escherichia coli; assay: Antibacterial activity against Escherichia coli ATCC 25922 after 18 hrs in presence of NaCl by CLSI based broth microdilution method (reference value: 4 microM); assay type: functional; details: ATCC 25922, 18 h
# [23] = tested on: Escherichia coli; assay: Antibacterial activity against Escherichia coli ATCC 25922 after 18 hrs in presence of KCl by CLSI based broth microdilution method (reference value: 4 microM); assay type: functional; details: ATCC 25922, 18 h
# [24] = tested on: Escherichia coli; assay: Antibacterial activity against Escherichia coli ATCC 25922 after 18 hrs in presence of MgCl2 by CLSI based broth microdilution method (reference value: 4 microM); assay type: functional; details: ATCC 25922, 18 h
# [25] = tested on: Escherichia coli; assay: Antibacterial activity against Escherichia coli ATCC 25922 after 18 hrs in presence of FeCl3 by CLSI based broth microdilution method (reference value: 4 microM); assay type: functional; details: ATCC 25922, 18 h
# [26] = tested on: Staphylococcus aureus; assay: Antibacterial activity against Staphylococcus aureus ATCC 25923 after 18 hrs in presence of KCl by CLSI based broth microdilution method (reference value: 16 microM); assay type: functional; details: ATCC 25923, 18 h
# [27] = tested on: Staphylococcus aureus; assay: Antibacterial activity against Staphylococcus aureus ATCC 25923 after 18 hrs in presence of MgCl2 by CLSI based broth microdilution method (reference value: 16 microM); assay type: functional; details: ATCC 25923, 18 h
# [28] = tested on: Staphylococcus aureus; assay: Antibacterial activity against Staphylococcus aureus ATCC 25923 after 18 hrs in presence of FeCl3 by CLSI based broth microdilution method (reference value: 16 microM); assay type: functional; details: ATCC 25923, 18 h
# [29] = tested on: Escherichia coli; assay: Antimicrobial activity against Escherichia coli ATCC 25922 preincubated for 1 hr in presence of 10% mouse serum and measured after 18 hrs by CLSI-based broth microdilution assay (reference value: 4 microM); assay type: functional
# [30] = tested on: Staphylococcus aureus; assay: Antibacterial activity against Staphylococcus aureus ATCC 25923 after 18 hrs in presence of NaCl by CLSI based broth microdilution method (reference value: 128 microM); assay type: functional; details: ATCC 25923, 18 h
# [31] = tested on: Staphylococcus aureus; assay: Antibacterial activity against Staphylococcus aureus ATCC 25923 after 18 hrs in presence of MgCl2 by CLSI based broth microdilution method (reference value: 128 microM); assay type: functional; details: ATCC 25923, 18 h
# [32] = tested on: Staphylococcus aureus; assay: Antibacterial activity against Staphylococcus aureus ATCC 25923 after 18 hrs in presence of FeCl3 by CLSI based broth microdilution method (reference value: 128 microM); assay type: functional; details: ATCC 25923, 18 h
# [33] = tested on: DNA; assay: Binding affinity to Escherichia coli ATCC 25922 genomic DNA at 0.5 x MIC after 30 mins by agarose gel electrophoresis; assay type: nucleic-acid assay
# [34] = Cytotoxicity against mouse RAW264.7 cells assessed as cell proliferation at 8 uM after 1 hr by MTT assay relative to control; assay type: cell-based; details: read-out: Activity
# [35] = tested on: Staphylococcus aureus; assay: Antibacterial activity against Staphylococcus aureus ATCC 25923 after 18 hrs in presence of KCl by CLSI based broth microdilution method (reference value: 4 microM); assay type: functional; details: ATCC 25923, 18 h
# [36] = tested on: Staphylococcus aureus; assay: Antibacterial activity against Staphylococcus aureus ATCC 25923 after 18 hrs in presence of FeCl3 by CLSI based broth microdilution method (reference value: 4 microM); assay type: functional; details: ATCC 25923, 18 h
compound,measurement,setting,value
CCCCCCCCCC(=O)NCC(=O)N[C@@H](CC(C)C)C(=O)N[C@@H](CC(C)C)C(=O)N[C@H](CCCCN)C(=O)N[C@@H](CCCNC(=N)N)C(=O)N[C@H](C(=O)N[C@H](CCCCN)C(=O)N[C@H](C(=O)N[C@@H](CC(C)C)C(=O)N[C@@H](CC(C)C)C(N)=O)[C@@H](C)O)[C@@H](C)CC,"viability at 1 h, 16 µM",[1],< 80%
same,inhibition,[2],Active
CCCCCCCCCCCC(=O)NC(Cc1cn(CCCC[C@H](NC(C)=O)C(=O)NCC(=O)N[C@@H](CC(C)C)C(=O)N[C@@H](CC(C)C)C(=O)N[C@H](CCCCN)C(=O)N[C@@H](CCCNC(=N)N)C(=O)N[C@H](C(=O)N[C@H](CCCCN)C(=O)N[C@H](C(=O)N[C@@H](CC(C)C)C(=O)N[C@@H](CC(C)C)C(N)=O)[C@@H](C)O)[C@@H](C)CC)nn1)C(=O)NCC(=O)N[C@@H](CC(C)C)C(=O)N[C@@H](CC(C)C)C(=O)N[C@H](CCCCN)C(=O)N[C@@H](CCCNC(=N)N)C(=O)N[C@H](C(=O)N[C@H](CCCCN)C(=O)N[C@H](C(=O)N[C@@H](CC(C)C)C(=O)N[C@@H](CC(C)C)C(N)=O)[C@@H](C)O)[C@@H](C)CC (stereo partly specified),Activity,[3],Active
same,Activity,[4],Dose-dependent effect
same,Activity,[5],inactive
CCCCCCCC(=O)NCC(=O)N[C@@H](CC(C)C)C(=O)N[C@@H](CC(C)C)C(=O)N[C@H](CCCCN)C(=O)N[C@@H](CCCNC(=N)N)C(=O)N[C@H](C(=O)N[C@H](CCCCN)C(=O)N[C@H](C(=O)N[C@@H](CC(C)C)C(=O)N[C@@H](CC(C)C)C(N)=O)[C@@H](C)O)[C@@H](C)CC,MIC,[6],64 µM
same,MIC,[7],64 µM
same,MIC,[8],32 µM
same,MIC,[9],128 µM
same,MIC,[10],64 µM
same,MIC,[11],32 µM
same,Activity,[12],Active
same,MIC,[13],64 µM
same,MIC,[14],64 µM
same,Activity,[15],Active
CCCCCC(=O)NC(Cc1cn(CCCC[C@H](NC(C)=O)C(=O)NCC(=O)N[C@@H](CC(C)C)C(=O)N[C@@H](CC(C)C)C(=O)N[C@H](CCCCN)C(=O)N[C@@H](CCCNC(=N)N)C(=O)N[C@H](C(=O)N[C@H](CCCCN)C(=O)N[C@H](C(=O)N[C@@H](CC(C)C)C(=O)N[C@@H](CC(C)C)C(N)=O)[C@@H](C)O)[C@@H](C)CC)nn1)C(=O)NCC(=O)N[C@@H](CC(C)C)C(=O)N[C@@H](CC(C)C)C(=O)N[C@H](CCCCN)C(=O)N[C@@H](CCCNC(=N)N)C(=O)N[C@H](C(=O)N[C@H](CCCCN)C(=O)N[C@H](C(=O)N[C@@H](CC(C)C)C(=O)N[C@@H](CC(C)C)C(N)=O)[C@@H](C)O)[C@@H](C)CC (stereo partly specified),MIC,[16],128 µM
same,MIC,[17],64 µM
same,MIC,[18],64 µM
same,MIC,[19],32 µM
same,Activity,[20],Active
CCCCCCCC(=O)NC(Cc1cn(CCCC[C@H](NC(C)=O)C(=O)NCC(=O)N[C@@H](CC(C)C)C(=O)N[C@@H](CC(C)C)C(=O)N[C@H](CCCCN)C(=O)N[C@@H](CCCNC(=N)N)C(=O)N[C@H](C(=O)N[C@H](CCCCN)C(=O)N[C@H](C(=O)N[C@@H](CC(C)C)C(=O)N[C@@H](CC(C)C)C(N)=O)[C@@H](C)O)[C@@H](C)CC)nn1)C(=O)NCC(=O)N[C@@H](CC(C)C)C(=O)N[C@@H](CC(C)C)C(=O)N[C@H](CCCCN)C(=O)N[C@@H](CCCNC(=N)N)C(=O)N[C@H](C(=O)N[C@H](CCCCN)C(=O)N[C@H](C(=O)N[C@@H](CC(C)C)C(=O)N[C@@H](CC(C)C)C(N)=O)[C@@H](C)O)[C@@H](C)CC (stereo partly specified),Activity,[21],Toxic
same,MIC,[22],8 µM
same,MIC,[23],16 µM
same,MIC,[24],16 µM
same,MIC,[25],4 µM
same,MIC,[26],16 µM
same,MIC,[27],16 µM
same,MIC,[28],8 µM
same,MIC,[29],8 µM
CCCC(=O)NC(Cc1cn(CCCC[C@H](NC(C)=O)C(=O)NCC(=O)N[C@@H](CC(C)C)C(=O)N[C@@H](CC(C)C)C(=O)N[C@H](CCCCN)C(=O)N[C@@H](CCCNC(=N)N)C(=O)N[C@H](C(=O)N[C@H](CCCCN)C(=O)N[C@H](C(=O)N[C@@H](CC(C)C)C(=O)N[C@@H](CC(C)C)C(N)=O)[C@@H](C)O)[C@@H](C)CC)nn1)C(=O)NCC(=O)N[C@@H](CC(C)C)C(=O)N[C@@H](CC(C)C)C(=O)N[C@H](CCCCN)C(=O)N[C@@H](CCCNC(=N)N)C(=O)N[C@H](C(=O)N[C@H](CCCCN)C(=O)N[C@H](C(=O)N[C@@H](CC(C)C)C(=O)N[C@@H](CC(C)C)C(N)=O)[C@@H](C)O)[C@@H](C)CC (stereo partly specified),MIC,[30],> 128 µM
same,MIC,[31],> 128 µM
same,MIC,[32],128 µM
same,Activity,[33],inactive
CCCCCCCCCCCC(=O)NCC(=O)N[C@@H](CC(C)C)C(=O)N[C@@H](CC(C)C)C(=O)N[C@H](CCCCN)C(=O)N[C@@H](CCCNC(=N)N)C(=O)N[C@H](C(=O)N[C@H](CCCCN)C(=O)N[C@H](C(=O)N[C@@H](CC(C)C)C(=O)N[C@@H](CC(C)C)C(N)=O)[C@@H](C)O)[C@@H](C)CC,"viability at 1 h, 8 µM",[34],< 80%
same,MIC,[35],4 µM
same,MIC,[36],8 µM
